In PubChem BioAssay (NCI):
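Test compounds were applied to cells in 96-well plates for 48 hours at 5 doses. TGI marks complete inhibition of growth.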

Key:
Experiment in all cases: NCI tumour cell line growth inhibition, 48 h
OVCAR-4 ovarian = test system: OVCAR-4 ovarian
MDA-N = test system: MDA-N
PC-3 prostate = test system: PC-3 prostate
MALME-3M melanoma = test system: MALME-3M melanoma
SNB-75 CNS = test system: SNB-75 CNS
KM12 colon = test system: KM12 colon
SK-MEL-2 melanoma = test system: SK-MEL-2 melanoma
EKVX NSCLC = test system: EKVX NSCLC
A498 renal = test system: A498 renal
RXF 393 renal = test system: RXF 393 renal

| Compound | TGI (OVCAR-4 ovarian) | TGI (MDA-N) | TGI (PC-3 prostate) | TGI (MALME-3M melanoma) | TGI (SNB-75 CNS) | TGI (KM12 colon) | TGI (SK-MEL-2 melanoma) | TGI (EKVX NSCLC) | TGI (A498 renal) | TGI (RXF 393 renal) |
| --- | --- | --- | --- | --- | --- | --- | --- | --- | --- | --- |
| COC(=O)C1=C(CCCCO[Si](C)(C)C(C)(C)C)NC(=O)N2[C@H](CCOCc3ccccc3)CC[C@@H]12 | > 100 µM | > 100 µM | > 100 µM | > 100 µM | > 100 µM | > 100 µM | > 100 µM | > 100 µM | > 100 µM |  |
| O=C(O)CSC(CC(=O)c1ccc(Cl)cc1)c1ccc(Cl)cc1 (configuration not stated) | > 100 µM | > 100 µM | > 100 µM |  | > 100 µM | 27.6 µM | > 100 µM | > 100 µM | > 100 µM |  |
| CCCCCC[C@H]([C@H](C)O)n1cnc2c(N)ncnc21 | > 100 µM | > 100 µM | > 100 µM | > 100 µM | > 100 µM | > 100 µM | > 100 µM | > 100 µM |  | > 100 µM |
| C=C(C)C1CC(=O)C(C)=C(O)C1 (configuration not stated) | > 100 µM | > 100 µM | > 100 µM | > 100 µM | > 100 µM | > 100 µM | > 100 µM | > 100 µM |  |  |
| COc1cc2c(/C=C3/C(=O)Nc4ccccc43)c(Cl)n(Cc3ccc(Cl)cc3)c2cc1C | 18.6 µM |  | 16.5 µM | 14.5 µM | 0.898 µM | 1.02 µM | 17.3 µM | 44.9 µM | 3.4 µM | 4.85 µM |
| C=C1c2nc3ccccc3n2C=C(c2ccc(C)cc2)N1c1ccc(OC)cc1 | > 100 µM |  | > 100 µM | > 100 µM | > 100 µM | 63.3 µM | > 100 µM | > 100 µM | > 100 µM | > 100 µM |
| CCN(CC)C(=S)SC(C(=O)Nc1nnc(-c2ccc(Cl)cc2)o1)c1ccccc1 (configuration not stated) | 18.6 µM | 50.3 µM | 28.3 µM | 32.7 µM |  | 58.2 µM | > 100 µM | 29.4 µM | 41.4 µM | 48.8 µM |
| O=C(CNc1ccccc1C(=O)O)Nn1cnc2ccc(S(=O)(=O)Nc3ccccc3C(=O)O)cc2c1=O | > 100 µM | > 100 µM | > 100 µM | > 100 µM | > 100 µM | > 100 µM | > 100 µM | > 100 µM |  |  |
| Cc1nc(NC(C)(CO)CO)nc(N/N=C/c2ccc(Cl)cc2)c1C(=O)Nc1ccc(Cl)cc1 | > 100 µM | > 100 µM | > 100 µM | > 100 µM | > 100 µM | > 100 µM | > 100 µM | > 100 µM |  | > 100 µM |
| CN(CCCCCl)P(=O)(OCc1ccc([N+](=O)[O-])o1)OCC1OC(n2ccc(N)nc2=O)C(O)C1O (configuration not stated) | 29.1 µM | 40.3 µM | 43 µM | 8.36 µM | 5.59 µM | 34.6 µM | 53.1 µM |  |  | 60.2 µM |
| CCOP(=O)(/C=C/n1cc(C)c(=O)[nH]c1=O)OCC | > 100 µM | > 100 µM | > 100 µM |  | > 100 µM | > 100 µM | > 100 µM | > 100 µM | > 100 µM | > 100 µM |
| O=[N+]([O-])c1ccc(-n2nc3ccc4nonc4c3n2)cc1 | 47 µM | > 100 µM | > 100 µM | 89.2 µM | 30.8 µM | > 100 µM | > 100 µM | > 100 µM |  |  |
| N#Cc1c(-c2ccc([N+](=O)[O-])cc2)c(C#N)c(=O)n(NS(=O)(=O)c2ccccc2)c1S | > 100 µM |  | > 100 µM | > 100 µM | > 100 µM | > 100 µM | 60.8 µM | > 100 µM | > 100 µM | > 100 µM |
| CSC(SC)=C(C(=O)c1ccc(Cl)cc1)n1c(=O)sc2cc(Br)ccc21 | > 100 µM | > 100 µM | > 100 µM | > 100 µM |  | > 100 µM | > 100 µM | > 100 µM | > 100 µM | > 100 µM |
| Cn1c(=O)c2c(nc3[nH]c(=O)c(Br)cn32)n(C)c1=O | > 100 µM | > 100 µM | > 100 µM |  | > 100 µM | > 100 µM | > 100 µM | > 100 µM | > 100 µM | > 100 µM |
| COc1ccc(-c2ccc(C(=O)C=P(c3ccccc3)(c3ccccc3)c3ccccc3)cc2)cc1 | 25 µM | 28.9 µM | 49 µM | 43.9 µM |  | 36.6 µM |  | 38.6 µM | 31.9 µM | 27 µM |
| O=C1c2ccccc2-c2nc3ccncc3n21 | > 100 µM | > 100 µM | > 100 µM | > 100 µM | > 100 µM | > 100 µM | > 100 µM | > 100 µM |  | > 100 µM |
| CCC1(O)CC(CCN(Cc2ccccc2)C(=O)OCc2ccccc2)C(OCc2ccccc2)C1O (configuration not stated) | 22 µM | 98.8 µM | 23.2 µM |  | 25.7 µM | 27.3 µM | 28.7 µM | 30.9 µM |  | 41.9 µM |
| CC(O)c1nc(C#N)c(N)o1 (configuration not stated) |  | > 100 µM | > 100 µM | > 100 µM | > 100 µM | > 100 µM | > 100 µM | > 100 µM | > 100 µM |  |
| COC(=O)[C@]1(c2cc3ccccc3n2S(=O)(=O)c2ccccc2)CC2CN(C(=O)OCc3ccccc3)C1C1OC(C)(C)OC21 (some centres not stated) | > 100 µM | > 100 µM | > 100 µM | > 100 µM | > 100 µM | > 100 µM | > 100 µM | > 100 µM |  | > 100 µM |
| O=C(O)c1c(CC(Cc2ccc3c(c2)CCC3)C(=O)O)ccc2c1CCC2 (configuration not stated) | > 100 µM | > 100 µM | > 100 µM | > 100 µM |  | > 100 µM | > 100 µM | > 100 µM | > 100 µM |  |
| O=C(O)C(Cc1ccccc1)NCc1c(O)ccc2c(-c3ccccc3)cc(=O)oc12 (configuration not stated) | > 100 µM | > 100 µM | > 100 µM | > 100 µM | > 100 µM | > 100 µM | > 100 µM | > 100 µM |  | > 100 µM |
| O=P1(N(CCCl)CCCl)Oc2ccc(Cl)cc2C(C(Cl)(Cl)Cl)c2cc(Cl)ccc2O1 (configuration not stated) | > 100 µM | 87.7 µM | > 100 µM |  | 37.9 µM | 33.4 µM | 47.3 µM | > 100 µM | > 100 µM | 29.3 µM |
| COc1ccc(N2C(=O)C3c4[nH]c5c(C)cccc5c4C4CCC(C(C)C)CC4C3C2=O)cc1 (configuration not stated) | 42.3 µM | 29.2 µM | 25.2 µM | 36.8 µM | 9.4 µM | 19.9 µM | 35.3 µM | 40.6 µM | 32.8 µM |  |
